In US10736883B2, “Triazole furan compounds as agonists of the APJ receptor” (AMGEN INC., priority 2016, dated 2020):

Experiments:
APJ receptor [1] = biological target: T1, APJ receptor (Homo sapiens (Human), UniProt P35414); conditions: apelin-36, apelin-17 and apelin-13 compared; cited from earlier work
APJ receptor [2] = biological target: T1, APJ receptor; assay: [35S]GTPγS binding assay on membranes from CHO cells stably expressing human APJ receptor; format: biochemical; conditions: membranes of CHO cells stably expressing human APJ receptor, means of several independent experiments, read-out: Activity hAPJ SPA EC50 IP
How it was run: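 Membranes from CHO cells stably expressing human APJ were incubated with 0.2 nM [35S]GTPγS and ligands for 90 min at RT in 20 mM HEPES pH 7.5, 5 mM MgCl2, 200 mM NaCl, 3 μM GDP, 0.1% BSA with WGA PS beads. Nonspecific binding was set with 100 μM GTPγS. EC50 came from non-linear regression.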

[3] = test system: MI-induced heart failure rats; assay: Cardiovascular effects of Example 56.0 and captopril/losartan on MI-induced heart failure rats; format: in vivo, rat; conditions: MI rats
Procedure: Cardiovascular Effects of Example 56.0 and Captopril/Losartan on MI-Induced Heart Failure Rats
Male Lewis rats at 2-3 months of age were used for the study. MI was induced by ligation of the LAD. Echocardiography (Echo) was performed at one-week post-MI on rats for verification of infarct size and animal enrollment Animals with ejection fractions more than 40% or no visible infarct in myocardium were excluded from the study. All eligible MI rats were randomly divided into 3 groups: 1) those treated with vehicle; 2) those treated with losartan (0.5 g/L in drink water); and 3) those treated with captopril (0.5 g/L in drink water). Treatments were initiated approximately five weeks post-MI and animals were continuously treated with losartan and captopril in drinking water up to 15 days prior to being assigned into each subgroup. These subgroup groups included the following: 1) cohort treated with vehicle; 2) cohort treated with Example 56.0 at various doses; 3) cohort treated only with losartan; 4) cohort treated with losartan and Example 56.0 at various doses; 5) cohort treated only with captopril; and 6) cohort treated with captopril and Example 56.0 at various doses. A Millar PV catheter was inserted into the right common carotid artery and then advanced to the left ventricle (LV) for cardiac hemodynamic assessment and the peripheral arterial pressure was also monitored by a pressure transducer via a femoral artery access in all rats. Following hemodynamic stabilization, baseline steady-state data was acquired Animals in any Example 56 treated group received intravenous infusion of Example 56.0 in a dose-escalated fashion during cardiac hemodynamic assessment. Blood was drawn for actual PK exposure to derive a PK/PD profile.

heart failure rat model = assay: In vivo cardiac contractility in heart failure (MI) rat model; conditions: heart failure rats (LAD ligation), acute administration for 30 min
Procedure: Evidence for Improvement in Cardiac Contractility In Vivo in Heart Failure Rat Model
Based on the ex vivo findings in isolated heart assay, APJ agonists were dosed in vivo to investigate the translation of cardiac contractility in in vivo settings. Male Lewis rats (Charles River, USA) at 2-3 months of age were used for the study. Heart failure was induced by permanent ligation of the left descending coronary artery which results in injury to the heart with an ejection fraction of <35%. APJ agonists were administered dose dependently acutely for a period of 30 min. Administration of example compounds lead to an increase in cardiac contractility as measured by dP/dtmax (derivative of left ventricular pressure) (Table 27).

[4] = test system: isolated perfused rat hearts; assay: Ex vivo isolated perfused rat heart (Langendorff) assay, load independent inotropic/lusitropic effects; conditions: percent change over vehicle
Description: Evidence for Load Independent Inotropic Effects with APJ Agonists Using Ex Vivo Assay (Isolated Perfused Rat Hearts)
Naive Sprague Dawley® SD rats (Harlan laboratories (Livermore, Calif. USA)) were anaesthetized and hearts were excised followed by cannulation in the Langendorff apparatus (Harvard apparatus, Holliston, Mass. USA) via aorta. The heart was perfused retrograde with modified oxygenated Krebs-Henseleit buffer (Skrzypiec-Spring M et al., (2007) J. Pharmacol Toxicol Methods 55: 113-126). The pressure of the solution causes the aortic valve to shut and the perfusate is then forced into the ostium and the coronary vessels. This allows the heart to beat for several hours. A balloon was inserted into the left ventricle (LV) to measure dP/dtmax (derivative of left ventricular pressure) as an index of cardiac contractility. The APJ agonist was perfused constantly in a dose dependent manner into the heart to examine cardiac contractility.
Example 210.0 was infused at different concentrations and load independent contractility was measured by index of LV dP/dtmax and the results are expressed as a percent change over vehicle. […] Example 210.0 was infused at different concentrations and load independent lusitropic effect (relaxation) was measured by index of LV dP/dtmin where results are expressed as percent change over vehicle. […] Example 51.0 was infused at different concentrations and load independent contractility was measured by index of LV dP/dtmax and the results are expressed as a percent change over vehicle. […] Example 51.0 was infused at different concentrations and load independent lusitropic effect (relaxation) was measured by index of LV dP/dtmin where results are expressed as percent change over vehicle.

isolated rat heart = assay: Isolated rat heart assay with APJ agonist in the presence or absence of AT1R blocker losartan
Description: Evidence for Blockade of AT1R Signaling Enhances the APJ Receptor Signaling Using Ex-Vivo (Isolated Rat Heart Assay) and In Vivo (Myocardial Infraction (MI)-Induced Heart Failure Model)
Naive Sprague Dawley® SD rats were anaesthetized and hearts were excised followed by cannulation in the Langendorff apparatus via aorta. The heart was perfused retrograde with modified oxygenated Krebs-Henseleit buffer. The pressure of the solution causes the aortic valve to shut and the perfusate was then forced into the ostium and the coronary vessels. This allowed the heart to beat for several hours. A balloon was inserted into the left ventricle to measure dp/dtmax as an index of cardiac contractility. The APJ agonist (Example 56.0) was perfused in the presence or absence of AT1R blocker losartan.

[5] = Example 56.0 alone over vehicle, intravenous infusion

T1 sequence (P35414 whole entry): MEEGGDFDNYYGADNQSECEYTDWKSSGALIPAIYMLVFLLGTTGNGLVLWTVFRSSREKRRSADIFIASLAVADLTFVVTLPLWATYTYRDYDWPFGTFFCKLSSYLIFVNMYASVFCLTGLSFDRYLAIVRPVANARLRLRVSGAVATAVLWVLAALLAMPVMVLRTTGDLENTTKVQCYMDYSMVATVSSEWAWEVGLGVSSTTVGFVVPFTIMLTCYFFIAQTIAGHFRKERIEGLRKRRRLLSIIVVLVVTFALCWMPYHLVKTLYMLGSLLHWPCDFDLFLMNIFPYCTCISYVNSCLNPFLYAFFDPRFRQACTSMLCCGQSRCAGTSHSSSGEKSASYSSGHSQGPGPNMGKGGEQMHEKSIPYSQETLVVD

Row | Compound | in vitro activity (relative potency) (APJ receptor [1]) | EC50 (APJ receptor [2]) [nM] | heart rate ([3]; Example 56.0 alone or in combination with an ARB or ACE inhibitor) | dp/dtmax [3, 5] | ejection fraction [3, 5] | contractile function ([3]; plus losartan or captopril, over Example 56.0 therapy alone) | MI Rat Model dP/dtmax (%) (heart failure rat model) | Isolated Heart Assay dP/dtmax (%) ([4]; contractility) | Isolated Heart Assay dP/dtmin (%) ([4]; relaxation) | inotropic effects (isolated rat heart; APJ agonist alone) | Emax on co-infusion of AT1R blocker losartan (isolated rat heart; co-infusion of losartan) | increase of potency on co-infusion of AT1R blocker losartan (isolated rat heart; co-infusion of losartan) [fold]
1 | apelin-17 | approximately equipotent | – | – | – | – | – | – | – | – | – | – | –
2 | Apelin-36 (LVQPRGSRNGPGPWQGGRRKFRRQRPRLSHKGPMPF; Apelin-36; UniProt Q9ULZ1 42-77, looked up) | approximately equipotent | – | – | – | – | – | – | – | – | – | – | –
3 | COc1cccc(OC)c1-n1c(NS(=O)(=O)[C@@H](C)[C@H](C)c2ncc(F)cn2)nnc1-c1ccc(C)o1 [Example 56.0, (2S,3R)—N-(4-(2,6-dimethoxyphenyl)-5-(5-methyl-2-furanyl)-4H-1,2,4-triazol-3-yl)-3-(5-fluoro-2-pyrimidinyl)-2-butanesulfonamide] | – | 0.071 | did not significantly change | increase | increase | further augmented | 30 | 23.0 | 24.9 | dose-dependent increase | increased | 5
